Measurements reported in patent US20260372306A1, “MICROBIOCIDAL HETEROBICYCLIC DIHYDROOXADIAZINE DERIVATIVES” (SYNGENTA CROP PROTECTION AG, priority 2022, published 2026).

Legend:
Botryotinia fuckeliana = Botryotinia fuckeliana syn. Botrytis cinerea (Gray Mould of Grapevine), growth inhibition in nutrient broth; type: cell-based; conditions: Vogels broth, 24 °C, photometric, 3-4 days after application, read-out: control of Botryotinia fuckeliana (inhibition of growth)
Protocol: (§1) Mycelia fragments or conidia suspensions of a fungus prepared either freshly from liquid cultures of the fungus or from cryogenic storage, are directly mixed into nutrient broth. DMSO solutions of the test compound (max. 10 mg/mL) are diluted with 0.025% Tween20 by a factor of 50 and 10 μL of this solution is pipetted into a microtiter plate (96-well format). The nutrient broth containing the fungal spores/mycelia fragments is then added to give an end concentration of the tested compound. The test plates are incubated in the dark at 24 °C and 96% relative humidity. The inhibition of fungal growth is determined photometrically after 2 to 7 days, depending on the pathosystem, and percent antifungal activity relative to the untreated check is calculated.
(§2) Conidia of the fungus from cryogenic storage are directly mixed into nutrient broth (Vogels broth). After placing a (DMSO) solution of test compound into a microtiter plate (96-well format), the nutrient broth containing the fungal spores is added. The test plates are incubated at 24 °C and the inhibition of growth is determined photometrically 3-4 days after application.

Sclerotinia sclerotiorum = Sclerotinia sclerotiorum (Cottony Rot of Oilseed Rape), growth inhibition in nutrient broth; type: cell-based; conditions: PDB potato dextrose broth, 24 °C, photometric, 3-4 days after application, read-out: control of Sclerotinia sclerotiorum (inhibition of growth)
Protocol: as §1
as §2, with “Mycelia fragments of a newly grown liquid culture” for “Conidia”, “fungus” for “fungus from cryogenic storage”, “(PDB potato dextrose” for “(Vogels”, “format)” for “format),”, “material” for “spores”

Glomerella lagenarium = Glomerella lagenarium syn. Colletotrichum lagenarium (Anthracnose of Cucurbits), growth inhibition in nutrient broth; type: cell-based; conditions: Colletotrichum orbiculare, PDB potato dextrose broth, 24 °C, photometric, 3-4 days after application, read-out: control of Glomerella lagenarium (inhibition of growth)
Protocol: as §1
as §2, with “(PDB potato dextrose” for “(Vogels”, “measured” for “determined”

Pyrenophora teres = Pyrenophora teres (Net Blotch of Barley), barley leaf segments, preventative; type: in vivo; conditions: 200 ppm; barley leaf segments cv. Hasso; inoculated 2 days after application; assessed 5-7 days after application
Protocol: (§3) Leaf disks or leaf segments of various plant species are cut from plants grown in a greenhouse. The cut leaf disks or segments are placed in multiwell plates (24-well format) onto water agar. The leaf disks are sprayed with a test solution before (preventative) or after (curative) inoculation. Compounds to be tested are prepared as DMSO solutions (max. 10 mg/mL) which are diluted to the appropriate concentration with 0.025% Tween20 just before spraying. The inoculated leaf disks or segments are incubated under defined conditions (temperature, relative humidity, light, etc.) according to the respective test system. A single evaluation of disease level is carried out 3 to 14 days after inoculation, depending on the pathosystem. Percent disease control relative to the untreated check leaf disks or segments is then calculated.
Barley leaf segments cv. Hasso are placed on agar in a multiwell plate (24-well format) and sprayed with the formulated test compound diluted in water. […] The inoculated leaf segments are incubated at 20 °C and 65% rh under a light regime of 12 h light/12 h darkness in a climate cabinet and the activity of a compound is assessed as disease control compared to untreated when an appropriate level of disease damage appears in untreated check leaf segments (5-7 days after application).

Alternaria solani = Alternaria solani (Early Blight of Tomato), tomato leaf disks, preventative; type: in vivo; conditions: 200 ppm; tomato leaf disks cv. Baby; inoculated 2 days after application; assessed 5-7 days after application
Protocol: as §3
Tomato leaf disks cv. Baby are placed on agar in multiwell plates (24-well format) and sprayed with the formulated test compound diluted in water. […] The inoculated leaf disks are incubated at 23 °C/21 °C (day/night) and 80% rh under a light regime of 12/12 h (light/dark) in a climate cabinet and the activity of a compound is assessed as percent disease control compared to untreated when an appropriate level of disease damage appears on untreated check disk leaf disks (5-7 days after application).

Monographella nivalis = Monographella nivalis syn. Microdochium nivale, Fusarium nivale (Snow Mould, Foot Rot of Cereals), growth inhibition in nutrient broth; type: cell-based; conditions: PDB potato dextrose broth, 24 °C, photometric, 4-5 days after application, read-out: control of Monographella nivalis (inhibition of growth)
Protocol: as §1
as §2, with “(PDB potato dextrose” for “(Vogels”, “4-5” for “3-4”

[1] = system: Mycosphaerella graminicola; experiment: Mycosphaerella graminicola (Septoria tritici) (Septoria Blotch), growth inhibition in nutrient broth; type: cell-based; conditions: Zymoseptoria tritici, read-out: control of Mycosphaerella gramminicola (inhibition of growth)
Protocol: as §1
as §2, with “(PDB potato dextrose” for “(Vogels”, “4-5” for “3-4”

Structure (SMILES) | inhibition at 20 ppm (Botryotinia fuckeliana) | inhibition at 20 ppm (Sclerotinia sclerotiorum) | inhibition at 20 ppm (Glomerella lagenarium) | control of Pyrenophora teres (disease control compared to untreated) (Pyrenophora teres) | control of Alternaria solani (percent disease control compared to untreated) (Alternaria solani) | inhibition at 20 ppm (Monographella nivalis) | inhibition at 20 ppm [1]
Clc1ccc(CC2CON=C(c3c(Oc4cccc(C5CC5)c4)cnc4c(Cl)cnn34)N2)c(Cl)c1 (stereo not shown) [Compound 1.2, 3-[3-chloro-6-(3-cyclopropylphenoxy)pyrazolo[1,5-a]pyrimidin-7-yl]-5-[(2,4-dichlorophenyl)methyl]-5,6-dihydro-4H-1,2,4-oxadiazine] | ≥ 80% |  |  |  |  |  | 
Clc1ccc(CC2CON=C(c3c(Oc4cccc(C5CC5)c4)cnc4ccnn34)N2)c(Cl)c1 (stereo not shown) [Compound 1.1, 3-[6-(3-cyclopropylphenoxy)pyrazolo[1,5-a]pyrimidin-7-yl]-5-[(2,4-dichlorophenyl)methyl]-5,6-dihydro-4H-1,2,4-oxadiazine] | ≥ 80% | ≥ 80% | ≥ 80% | at least 80% | at least 80% |  | 
Clc1ccc(CC2CON=C(c3c(Oc4cccc(C5CC5)c4)cnc4cc(Cl)nn34)N2)c(Cl)c1 (stereo not shown) [Compound 1.4, 3-[2-chloro-6-(3-cyclopropylphenoxy)pyrazolo[1,5-a]pyrimidin-7-yl]-5-[(2,4-dichlorophenyl)methyl]-5,6-dihydro-4H-1,2,4-oxadiazine] | ≥ 80% |  |  |  |  |  | 
Fc1cc2ncc(Oc3cccc(C4CC4)c3)c(C3=NOCC(Cc4ccc(Cl)cc4Cl)N3)n2n1 (stereo not shown) [Compound 1.3, 3-[6-(3-cyclopropylphenoxy)-2-fluoro-pyrazolo[1,5-a]pyrimidin-7-yl]-5-[(2,4-dichlorophenyl)methyl]-5,6-dihydro-4H-1,2,4-oxadiazine] | ≥ 80% |  |  |  |  |  | 
Clc1ccc(CC2CON=C(c3c(Oc4cccc(C5CC5)c4)cnn4ccnc34)N2)c(Cl)c1 (stereo not shown) [Compound 1.5, 3-[7-(3-cyclopropylphenoxy)imidazo[1,2-b]pyridazin-8-yl]-5-[(2,4-dichlorophenyl)methyl]-5,6-dihydro-4H-1,2,4-oxadiazine] | ≥ 80% | ≥ 80% | ≥ 80% |  |  | ≥ 80% | ≥ 80%
